Earlier results as cited in patent US20150313913A1, “POSITIVE ALLOSTERIC MODULATORS OF THE GABA-A RECEPTOR IN THE TREATMENT OF AUTISM” (UNIVERSITY OF WASHINGTON THROUGH ITS CENTER FOR …, priority 2013, published 2015).

tested on: GABA-A receptor; conditions: Table 1, exemplary benzodiazepines; cited from earlier work

Row | Structure (SMILES) | Effect at GABA-A receptor
1 | C=CCONC1=Nc2ccc(Cl)cc2C(c2ccccc2Cl)=NC1 [Uldazepam] | Agonist
2 | CN1C(=O)CN=C(c2ccccc2F)c2cc(Cl)ccc21 [Fludiazepam] | Agonist
3 | COc1cc2c(cc1OC)C(c1ccc(N)cc1)=NN=C(C)C2 [Nerisopam] | Agonist
4 | O=C1CN=C(c2ccccc2F)c2cc(Cl)ccc2N1CC(O)CO (centres unmarked) [Proflazepam] | Agonist
5 | C[C@@H]1N=C(c2ccccc2Cl)c2cc([N+](=O)[O-])ccc2NC1=O [Meclonazepam] | Agonist
6 | CN1C(=O)C(O)N=C(c2ccccc2F)c2cc(Cl)ccc21 (centres unmarked) [Flutemazepam] | Agonist
7 | Fc1ccccc1C1=NCCN(CC(F)(F)F)c2ccc(Cl)cc21 [Fletazepam] | Agonist
8 | O=C(O)C1N=C(c2ccccc2)c2cc([N+](=O)[O-])ccc2NC1=O (centres unmarked) [Nitrazepate] | Agonist
9 | CN1C(=O)CN=C(C2=CCCCC2)c2cc([N+](=O)[O-])ccc21 [Menitrazepam] | Agonist
10 | CCOC(=O)N1CCC(=O)N(c2ccccc2)c2cc(Cl)ccc21 [Arfendazam] | Partial agonist
11 | O=C1CN2CCOC2(c2ccccc2F)c2cc(Cl)ccc2N1CCO (centres unmarked) [Flutazolam] | Agonist
12 | O=C1CN=C(c2ccccc2)c2cc(Cl)ccc2N1CCOCC1CC1 [Iclazepam] | Agonist
13 | CC1COC2(c3ccccc3Cl)c3cc(Cl)ccc3NC(=O)CN12 (centres unmarked) [Mexazolam] | Agonist
14 | COC(=O)CC[C@@H]1N=C(c2ccccn2)c2cc(Br)ccc2-n2c(C)cnc21 [Remimazolam] | Agonist
15 | CCCN(CCC)Cc1nc(-c2ncn3c2CN(C)C(=O)c2cc(F)ccc2-3)no1 [Ro48-6791] | Agonist
16 | [O-][N+]1=C(c2ccccc2)c2cc(Cl)ccc2N=C(NCC2CC2)C1 [Cyprazepam] | Agonist
17 | CC1CN2CC(=O)Nc3ccc(Cl)cc3C2(c2ccccc2)O1 (centres unmarked) [Oxazolam] | Agonist
18 | O=C1Nc2ccc(Cl)nc2C(c2ccccc2Cl)=NC1O (centres unmarked) [Lopirazepam] | Agonist Short- acting
19 | NC(=O)c1ncn2c1CN=C(c1ccccc1Br)c1cc(F)ccc1-2 [Imidazenil] | Partial agonist
20 | Clc1ccc2c(n1)C(c1ccccc1Cl)=NCc1nncn1-2 [Zapizolam] | Agonist
21 | COc1cc2c(cc1OC)C(c1cccc(Cl)c1)=NN=C(C)C2 [Girisopam] | Agonist

Row | Structure (SMILES) | Effect at GABA-A receptor
22 | CCOC(=O)C1N=C(c2ccccc2Cl)c2cc(Cl)ccc2NC1=O (centres unmarked) [Ethyl dirazepate] | Agonist
23 | Cc1nn(C)c2c1C(c1ccccc1F)=NCC(=O)N2C [Zolazepam] | Agonist
24 | O=C1CN2CCOC2(c2ccccc2F)c2cc(Br)ccc2N1 (centres unmarked) [Haloxazolam] | Agonist
25 | CN1C(=O)CN2CCc3ccccc3C2c2cc(Cl)ccc21 (centres unmarked) [Clazolam] | Agonist
26 | Cc1nn(C)c2c1N(c1ccccc1)C(=O)CC(=O)N2C [Zomebazam] | Agonist
27 | O=C1COC(N2CCN=C(c3ccccc3Cl)c3cc(Cl)ccc32)=N1 [Reclazepam] | Agonist
28 | CN(C)Cc1nnc2n1-c1ccc(Cl)cc1C(c1ccccc1)=NC2 [Adinazolam] | Full agonist
29 | O=C1CCNc2ccc(Cl)cc2N1c1ccccc1 [Lofendazam] | Agonist
30 | NNC(=O)CN1C(=O)CN=C(c2ccccc2)c2cc(Br)ccc21 [Gidazepam] | Agonist (Prodrug)
31 | Cc1ncc2n1-c1ccc(Cl)cc1C(c1ccccc1Cl)=NC2 [Climazolam] | Agonist
32 | Clc1ccccc1C1=NCc2nnc(C3CCCCC3)n2-c2sc(Br)cc21 [Ciclotizolam] | Partial Agonist Low efficacy
33 | CN1C(=S)CN=C(c2ccccc2)c2cc(Cl)ccc21 [Sulazepam] | Agonist
34 | CCOC(=O)C1N=C(c2ccccc2F)c2cc(Cl)ccc2N(C(=O)NC)C1=O (centres unmarked) [Ethyl carfluzepate] | Agonist
35 | CC(C)(C)C(=O)OC1N=C(c2ccccc2)c2cc(Cl)ccc2NC1=O (centres unmarked) [Pivoxazepam] | Agonist
36 | O=C1C(O)N=C(c2ccccc2F)c2cc(Cl)ccc2N1CCO (centres unmarked) [Doxefazepam] | Agonist
37 | CCn1nc(C)c2c1C(c1ccccc1)=NCC(=O)N2 [Ripazepam] | Agonist
38 | C#Cc1ccc2c(c1)C(c1ccccc1F)=N[C@H](C)c1c(C(=O)OCC)ncn1-2 [SH-053-R-CH3-2′F] | Agonist
39 | CN1C(=O)CC(=O)N(c2ccccc2)c2cc(C(F)(F)F)ccc21 [Triflubazam] | Agonist
40 | CCS(=O)(=O)CCN1C(=O)CN=C(c2ccccc2F)c2cc(Cl)ccc21 [Elfazepam] | Agonist
41 | COCC1CN=C(c2ccccc2Cl)c2cc(Br)ccc2N1C (centres unmarked) [Metaclazepam] | Agonist

same assay, conditions: Table 2, exemplary SS-PAMs; cited from earlier work

Row | Structure (SMILES) | Effect at GABA receptor
42 | CC(C)CCC(=O)CC1c2ccccc2C(=O)N1c1ccc2ccc(Cl)nc2n1 (centres unmarked) [Pagoclone] | Partial agonist α2,3 selective
43 | Cn1c2ccc(F)cc2c2c(C(=O)N3CCCC3)cn(-c3ccccc3)c(=O)c21 [SL-651,498] | Full agonist α2,3 selective
44 | c1cc(-n2ccnc2)cc(-n2cnc3cc(-c4ccoc4)ccc32)c1 [NS-2664] | Partial agonist α2,3 subtype selective
45 | O=C1N=C(N2CCCCC2)CN1c1ccc(Cl)cc1 [ELB-139] | Partial agonist Highest affinity for α3 subtype but highest efficacy at the α1 and α2 subunits
46 | Cn1ncnc1COc1nn2c(-c3ccccc3)nnc2cc1C1CCC1 [TP-13] | Partial agonist at α2,3 subunits
47 | CC#CCOC(=O)c1c(C)nc2sc3c(c2c1N)CCC(O)C3 (centres unmarked) [SB-205,384] | Agonist α3,5,6 subtype selective
48 | CC(C)(O)c1ccn2c(-c3ccc(F)c(-c4ccc(F)cc4C#N)c3)cnc2c1F [TP-003] | Partial agonist α2,3,5 subtype selective binding and α3 selective efficacy
49 | Clc1ccc2c(c1)C1=NCCN1c1c(-c3noc(C4CC4)n3)ncn1-2 [U-90042] | Agonist at α1,3,6 subunits
50 | CC(C)(O)c1ccc2c(c1)ncn2-c1cccc(-c2ccccc2C#N)c1 [NS-11394] | Agonist α3,5 subtype selective
51 | Cc1cc2c(N3CCCC3)nc(N3CCCC3)nc2n1C [U-89843A] | Agonist at α1,3,6 subunits
52 | CCn1ncnc1COc1nn2c(-c3ccccc3F)nnc2cc1C(C)(C)C [TPA-023, 7-(1,1-dimethylethyl)-6-(2-ethyl-2H-1,2,4-triazol-3-ylmethoxy)-3-(2-fluorophenyl)-1,2,4-triazolo[4,3-b]pyridazine] | Partial agonist at α2,3 subunits Antagonist at α1,5 subunits
53 | CCCc1c(Cn2ccnc2-c2ncccc2F)ncn2nc(C)nc12 [Adipiplon] | Partial agonist α3 selective
54 | CCCN(CCC)C(=O)Cc1c(-c2ccc(Cl)cc2)nc2ccc(Cl)cn12 [Alpidem] | Agonist α3 subtype selective
55 | CCO/N=C(\C)c1ccc2c(c1)ncn2-c1cccc(-c2cccnc2)c1 [NS-2710] | Partial agonist α2,3 subtype selective

same assay, conditions: Table 4, exemplary non-BDZ GABA-A enhancers; cited from earlier work

Row | Structure (SMILES) | Effect at GABA receptor
56 | Cc1ccc(S(=O)(=O)N2CCc3ccccc3[C@@H]2[C@@H]2CCC(=O)O2)cc1 [ROD-188] | Agonist
57 | CCc1ccc(-c2nc3ccc(C)cn3c2CN(C)C(=O)CC(C)C)cc1 [Necopidem] | Agonist
58 | COc1nc2nc(-c3noc(C)n3)cn2c2c1CCCC2 [Taniplon] | Agonist
59 | COc1ccc(-n2[nH]c3c4c(ncc3c2=O)CCCCC4)cc1 [CGS-20625] | Agonist
60 | CC(C)n1c(=O)c2c(-c3noc(C4CC4)n3)ncn2c2ccccc21 [Panadiplon] | Partial agonist
61 | CCc1c(OC)nc2nc(-c3noc(C)n3)cn2c1C [Fasiplon] | Agonist
62 | O=c1cc2c(nn1-c1ccc(Cl)cc1)-c1ccccc1[S+]([O-])CC2 (centres unmarked) [Y-23684] | Partial agonist Non- selective
63 | CN1CCN(C(=O)OC2C3=C(SCCS3)C(=O)N2c2ccc3ccc(Cl)nc3n2)CC1 (centres unmarked) [Suriclone] | Agonist
64 | COCc1c(C(=O)OC(C)C)ncc2[nH]c3cccc(Cc4ccc(Cl)cc4)c3c12 [Gedocarnil] | Agonist
65 | O=c1c2cnc3ccccc3c2[nH]n1-c1ccccc1 [CGS-8216] | Agonist
66 | COCc1c(C(=O)OC(C)C)ncc2[nH]c3ccc(OCc4ccccc4)cc3c12 [Abecarnil] | Partial agonist
67 | COc1c(-c2ccc(N)cc2)nc2ccc(NCc3cccc(C)c3)nn12 [GBLD-345] | Full agonist
68 | CC(=O)N(C)c1cc(-c2ccnc3c(C(=O)c4cccs4)cnn23)ccc1F [Lorediplon] | Agonist
69 | O=C(c1ccccn1)c1cnn2c(-c3ccncc3)ccnc12 [Ocinaplon] | Agonist
70 | CCOC(=O)c1ncc2[nH]c3ccc(OCc4ccccc4)cc3c2c1COC [ZK-93423] | Agonist
71 | CCC(=O)N1CCN(C(=O)O[C@H]2C3SCCSC3C(=O)N2c2ccc3ccc(Cl)nc3n2)CC1 (some centres unmarked) [Suproclone] | Agonist
72 | O=c1c2cnc3ccccc3c2[nH]n1-c1ccc(Cl)cc1 [CGS-9896] | Agonist
73 | CCc1c(OC)nc2nc(C(=O)c3ccccc3)cn2c1C [Divaplon] | Partial agonist
74 | CCOCN1C2=C(C(=O)Nc3ccccc3F)C(=O)CCN2c2ccc(F)cc21 [RWJ-51204] | Partial agonist
75 | O=c1nc2ccccc2c2nc(-c3ccccc3)[nH]n12 [CGS-13767] | Agonist
76 | c1ccc(-c2cc(CCC3CCNCC3)c3ccccc3n2)cc1 [Pipequaline] | Partial agonist

tested on: not given; conditions: Table 4; cited from earlier work

Row | Structure (SMILES) | Dose in humans for anti-anxiety, anti-convulsive, or sedative effects
77 | CC(C)(C)C(O)/C=C/c1ccc2c(c1)OCO2 (centres unmarked) [Stiripentol] | 50-100 mg/kg/day (max daily dose 4 g)
